The text below walks through data of ChEMBL document CHEMBL3991601, “The target landscape of clinical kinase drugs” (Science, 2017).

The target in experiment [1] is T1, Receptor-type tyrosine-protein kinase FLT3 (Homo sapiens, UniProt P36888).
T1 sequence (P36888 whole entry): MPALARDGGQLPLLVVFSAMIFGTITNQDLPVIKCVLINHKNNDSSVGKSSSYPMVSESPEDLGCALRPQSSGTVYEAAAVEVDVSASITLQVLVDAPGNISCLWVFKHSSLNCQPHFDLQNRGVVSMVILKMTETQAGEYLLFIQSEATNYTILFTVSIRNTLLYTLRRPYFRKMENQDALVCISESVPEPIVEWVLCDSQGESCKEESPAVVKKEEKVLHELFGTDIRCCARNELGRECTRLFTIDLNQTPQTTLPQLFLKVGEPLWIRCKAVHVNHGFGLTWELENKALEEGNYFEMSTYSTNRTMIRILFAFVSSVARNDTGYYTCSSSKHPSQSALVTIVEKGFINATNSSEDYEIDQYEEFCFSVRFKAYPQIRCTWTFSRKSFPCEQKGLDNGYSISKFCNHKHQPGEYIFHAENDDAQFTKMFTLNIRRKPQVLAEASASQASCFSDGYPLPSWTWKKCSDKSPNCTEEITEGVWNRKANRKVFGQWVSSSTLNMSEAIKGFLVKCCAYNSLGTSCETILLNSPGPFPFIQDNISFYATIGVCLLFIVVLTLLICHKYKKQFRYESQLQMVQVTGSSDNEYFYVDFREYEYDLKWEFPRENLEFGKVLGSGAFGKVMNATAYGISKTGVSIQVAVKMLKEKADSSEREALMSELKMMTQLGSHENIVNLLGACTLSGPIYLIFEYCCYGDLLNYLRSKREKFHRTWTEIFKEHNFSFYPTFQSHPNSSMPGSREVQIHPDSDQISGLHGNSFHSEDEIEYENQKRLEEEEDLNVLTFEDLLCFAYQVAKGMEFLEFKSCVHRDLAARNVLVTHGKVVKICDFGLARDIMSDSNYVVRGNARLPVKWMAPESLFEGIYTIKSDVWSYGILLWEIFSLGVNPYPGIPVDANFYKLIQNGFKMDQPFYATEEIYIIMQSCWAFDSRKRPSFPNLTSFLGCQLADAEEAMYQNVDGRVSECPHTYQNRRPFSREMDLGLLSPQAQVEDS

Experiment [2] deals with T2, Serine/threonine-protein kinase ICK (Homo sapiens, UniProt Q9UPZ9).
T2 sequence (Q9UPZ9 whole entry): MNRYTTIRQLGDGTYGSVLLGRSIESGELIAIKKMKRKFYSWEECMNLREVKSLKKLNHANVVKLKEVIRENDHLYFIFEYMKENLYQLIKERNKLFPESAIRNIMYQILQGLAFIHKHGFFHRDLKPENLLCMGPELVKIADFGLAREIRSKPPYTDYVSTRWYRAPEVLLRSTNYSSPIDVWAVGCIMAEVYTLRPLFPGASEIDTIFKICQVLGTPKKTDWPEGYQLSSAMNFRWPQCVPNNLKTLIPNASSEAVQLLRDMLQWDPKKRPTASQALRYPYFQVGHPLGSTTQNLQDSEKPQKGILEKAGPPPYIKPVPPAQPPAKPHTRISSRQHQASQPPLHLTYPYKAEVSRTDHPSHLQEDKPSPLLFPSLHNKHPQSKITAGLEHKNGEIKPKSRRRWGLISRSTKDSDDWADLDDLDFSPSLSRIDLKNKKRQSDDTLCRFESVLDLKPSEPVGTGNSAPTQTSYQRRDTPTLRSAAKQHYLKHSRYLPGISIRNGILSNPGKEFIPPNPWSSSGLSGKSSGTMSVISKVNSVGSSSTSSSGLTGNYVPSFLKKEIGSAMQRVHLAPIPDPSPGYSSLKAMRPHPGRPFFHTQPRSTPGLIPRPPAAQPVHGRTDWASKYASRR

Experiment [3] has as its target T3, MAP kinase-activated protein kinase 5 (Homo sapiens, UniProt Q8IW41).
T3 sequence (Q8IW41 whole entry): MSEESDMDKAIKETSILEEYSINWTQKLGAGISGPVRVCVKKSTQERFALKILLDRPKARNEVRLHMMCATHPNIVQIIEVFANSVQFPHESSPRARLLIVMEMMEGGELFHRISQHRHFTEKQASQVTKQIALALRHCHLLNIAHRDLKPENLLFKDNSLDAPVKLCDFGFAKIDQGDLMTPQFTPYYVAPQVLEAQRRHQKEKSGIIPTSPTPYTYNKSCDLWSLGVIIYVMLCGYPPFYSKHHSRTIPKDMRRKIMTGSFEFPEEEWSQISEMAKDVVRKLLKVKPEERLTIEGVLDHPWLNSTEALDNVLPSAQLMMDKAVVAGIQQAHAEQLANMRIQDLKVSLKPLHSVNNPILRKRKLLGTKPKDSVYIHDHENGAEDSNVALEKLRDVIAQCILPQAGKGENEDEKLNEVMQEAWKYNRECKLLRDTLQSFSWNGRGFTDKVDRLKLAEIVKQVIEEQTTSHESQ

Calls of active or inactive are those of the source. Cut-off read from the data, not from the text of the source, for most assays here: actives have a measured Kd and inactives only a lower limit.
Note: in the data inactive means no Kd found up to 30 µM.

For `C[C@@H](N)c1ccc(C(=O)Nc2ccnc3[nH]ccc23)cc1` [Y-39983], the Kd in experiment [1], in experiment [2] and in experiment [3] was > 30 µM (inactive) throughout.
In the case of `CN1C/C=C/CCOc2cccc(c2)-c2ccnc(n2)Nc2cccc(c2)C1` [ZOTIRACICLIB], the Kd in experiment [1] is 0.418 µM; in experiment [2], > 30 µM (inactive); in experiment [3] it was > 30 µM (inactive).

What is called Kd is the concentration at which binding is half-saturated.
